Literature values as cited in patent US20110160274A1 (PANACEA BIOTEC LIMITED, priority 2008, published 2011).

Details: after oral administration of fenofibrate

plasma elimination half life: about 20 hours
SMILES: CC(C)(Oc1ccc(C(=O)c2ccc(Cl)cc2)cc1)C(=O)O [fenofibric acid]
